Results taken from patent US10292999B2, “Treatment of enteric stress from heat and infection in humans and animals by supplementation with zinc and butyric acid” (Kemin Industries, Inc., priority 2015, dated 2019).

Assays:
[1] = system: IPEC-J2 cells; assay: Trans-epithelial resistance (TER) of IPEC-J2 cells under heat stress; assay type: cell-based, pig; settings: 300 μM, heat stress 41.5° C.; for trans-epithelial resistance versus un-treated heat stress cells: FIG. 2
Description: FIG. 2 is a chart of the effect of 300 μM concentration of different test compounds on the transepithelial resistance (TER) values of IPEC-J2 cells under heat stress conditions.
When animals undergo heat stress, the increased temperature leads to damage of the epithelial layer as well as withdrawal of tight junction proteins to the cytoplasm of the epithelial cells, thus compromising the tight junctions. The compromised tight junctions allow for toxins and other inflammatory substances to enter the systemic circulation. […] As reported in FIG. 2, cells were treated with the test compounds and incubated at 41.5° C. (Con-TN) Control-Thermoneutral conditions—37° C. (CON—HS)—Control-Heat Stress conditions—41.5° C. (Zn Sulf) 300 μM Zinc Sulfate under Heat Stress Conditions—41.5° C. (ZBA) 300 μM ZBA under Heat Stress Conditions—41.5° C. (CaBA) 300 μM Calcium and Butyric Acid Salt under Heat Stress Conditions—41.5° C.

[2] = system: IPEC-J2 cells; settings: 1 mM, normal conditions, vs control, FIG. 1

Calcium and Butyric Acid Salt [Calcium Butyric Acid Salt]
trans-epithelial resistance versus un-treated heat stress cells [1]: do not improve the trans-epithelial resistance
trans-epithelial resistance (TER), 0 h [1]: 1.00
trans-epithelial resistance (TER), 12 h [1]: 1.58
trans-epithelial resistance (TER), 24 h [1]: 1.74
trans-epithelial resistance (TER), 36 h [1]: 1.96
trans-epithelial resistance (TER), 48 h [1]: 2.10

O=S(=O)([O-])[O-].[Zn+2] [Zinc Sulfate]
trans-epithelial resistance versus un-treated heat stress cells [1]: do not improve the trans-epithelial resistance
trans-epithelial resistance (TER), 0 h [1]: 1.00
trans-epithelial resistance (TER), 12 h [1]: 1.67
trans-epithelial resistance (TER), 24 h [1]: 1.89
trans-epithelial resistance (TER), 36 h [1]: 2.19
trans-epithelial resistance (TER), 48 h [1]: 2.31

CCCC(=O)[O-].CCCC(=O)[O-].[Zn+2] [ZBA, zinc salt of butyric acid in a molar ratio of 1:2]
trans-epithelial resistance versus un-treated heat stress cells [1]: improves the trans-epithelial resistance to the level of cells grown that are grown at thermoneutral conditions
trans-epithelial resistance (TER), 0 h [1]: 1.00
trans-epithelial resistance (TER), 12 h [1]: 2.04
trans-epithelial resistance (TER), 24 h [1]: 2.24
trans-epithelial resistance (TER), 36 h [1]: 2.60
trans-epithelial resistance (TER), 48 h [1]: 2.76
trans-epithelial resistance [2]: increased trans-epithelial resistance
